The numbers were not newly measured in the PKSmart pharmacokinetics tables (Seal et al. 2025), which cites them from elsewhere.

A short description of data set [1]: Lombardo et al. 2013, J Clin Pharmacol 53:178, doi 10.1177/0091270012440282. To be noted: for Vd / clearance: in vivo, iv; for fraction unbound: plasma.
The nature of data set [2]: Lombardo, Berellini, Obach 2018, Drug Metab Dispos 46:1466, doi 10.1124/dmd.118.082966. To be noted: human; for fraction unbound: plasma; for MRT / Vd / clearance / half-life: in vivo, iv.

Usually Vd stands for a proportionality between amount in the body and measured concentration, not a real space. Broadly, the clearance is a measure of how efficiently the substance is removed, as volume per time. As a reminder, the fraction unbound is free concentration divided by total concentration. With `C[C@]12C=CC(=O)C=C1CC[C@@H]1[C@@H]2[C@@H](O)C[C@@]2(C)[C@H]1CC[C@]2(O)C(=O)CO`, in data set [1] (rat), the Vd is 1.74 L/kg, the clearance was 98.7 mL/min/kg and the free fraction (fraction unbound) was 0.32. Also, in data set [2], the fraction unbound is 0.25.

For orientation: MRT means the average time that molecules of a dose stay in the body. Broadly, the half-life is how long it takes for the measured level to halve. Regarding `CN1CCCC(n2nc(Cc3ccc(Cl)cc3)c3ccccc3c2=O)CC1` (stereo unspecified), in data set [1] (dog), the Vd was 8.1 L/kg, the clearance is 50 mL/min/kg and the free fraction (fraction unbound) is 0.0826. Besides, in data set [1] (rat), the Vd was 1.8 L/kg, the clearance was 58 mL/min/kg and the unbound share (fraction unbound) was 0.1. In data set [2], the mean residence time MRT was 27 h, the distribution volume (Vd) was 15 L/kg, the clearance was 9 mL/min/kg and the half-life was 22 h. Besides, in data set [2], the unbound share (fraction unbound) is 0.17.

In the case of `COc1ccc(Cc2nccc3cc(OC)c(OC)cc23)cc1OC`, in data set [1] (dog), the Vd was 3.01 L/kg, the clearance is 21.8 mL/min/kg and the fraction unbound was 0.1. In addition, the fraction unbound in data set [1] (rat) was 0.09. In data set [2], the MRT was 1.4 h, the Vd was 1 L/kg, the clearance was 11 mL/min/kg and the half-life was 1.8 h.

Consider `CC1(C)S[C@@H]2C(NC(=O)C(C(=O)O)c3ccsc3)C(=O)N2C1C(=O)O` (stereo partly specified), for which, in data set [1] (dog), the volume of distribution (Vd) is 0.28 L/kg and the clearance was 4.3 mL/min/kg. Moreover, in data set [2], the mean residence time (MRT) was 1.5 h, the Vd is 0.16 L/kg, the clearance was 1.8 mL/min/kg and the half-life was 1 h. The free fraction (fraction unbound) in data set [2] was 0.55.

On to `CC(=O)CC(c1ccccc1)c1c(O)c2ccccc2oc1=O` (stereo unspecified), for which, in data set [1] (dog), the Vd is 0.28 L/kg and the clearance is 0.3 mL/min/kg. Further, in data set [1] (rat), the Vd was 0.24 L/kg, the clearance is 0.17 mL/min/kg and the unbound share (fraction unbound) is 0.405. Further, in data set [2], the MRT is 39 h and the Vd is 0.13 L/kg.

As to `Nc1ccn([C@H]2CC[C@@H](CO)O2)c(=O)n1`, in data set [1] (monkey), the distribution volume (Vd) is 0.98 L/kg and the clearance was 10.3 mL/min/kg. In data set [1] (rat), the volume of distribution (Vd) was 1 L/kg, the clearance was 11.2 mL/min/kg and the unbound share (fraction unbound) is 0.85. In addition, the fraction unbound in data set [2] was 0.96.

Regarding `C[C@@H](O)C1C(=O)N2C(C(=O)O)=C(S[C@@H]3CNC(C(=O)N(C)C)C3)[C@H](C)[C@H]12` (stereo partly specified), in data set [1] (dog), the Vd was 0.22 L/kg, the clearance is 4 mL/min/kg and the fraction unbound was 0.726. Further, in data set [1] (monkey), the Vd was 0.23 L/kg, the clearance was 7.5 mL/min/kg and the unbound share (fraction unbound) was 0.666. Also, in data set [1] (rat), the Vd is 0.14 L/kg, the clearance is 26.4 mL/min/kg and the unbound share (fraction unbound) is 0.5. For the same compound, in data set [2], the mean residence time (MRT) is 1.3 h, the volume of distribution (Vd) was 0.3 L/kg, the clearance was 3.9 mL/min/kg and the half-life is 1 h. Besides, the free fraction (fraction unbound) in data set [2] is 0.87.

With `Cc1ccc(-c2nc3ccc(C)cn3c2CC(=O)N(C)C)cc1`, in data set [1] (rat), the volume of distribution (Vd) was 1.05 L/kg, the clearance was 48.7 mL/min/kg and the fraction unbound was 0.17. Further, in data set [2], the MRT was 2.1 h, the Vd is 0.54 L/kg, the clearance was 4.3 mL/min/kg and the half-life is 1.7 h.

Consider `CCOC(=O)C1(c2ccccc2)CCN(C)CC1`, for which, in data set [1] (dog), the Vd was 2.4 L/kg and the clearance was 43 mL/min/kg. Moreover, in data set [1] (rat), the Vd was 9.2 L/kg and the clearance is 245 mL/min/kg. Further, in data set [2], the mean residence time MRT is 6.4 h, the Vd was 2.3 L/kg, the clearance is 4.9 mL/min/kg and the half-life was 7.9 h. The fraction unbound in data set [2] was 0.42.

Turning to `CC(C)NCC(O)COc1ccc(COCCOC(C)C)cc1` (stereo unspecified), in data set [1] (dog), the Vd was 3.5 L/kg and the clearance was 7.9 mL/min/kg. Moreover, in data set [1] (monkey), the volume of distribution (Vd) is 3 L/kg and the clearance is 12 mL/min/kg. In data set [1] (rat), the Vd was 1.4 L/kg, the clearance was 13 mL/min/kg and the free fraction (fraction unbound) was 0.85. Also, in data set [2], the volume of distribution (Vd) is 2.4 L/kg, the clearance was 3.7 mL/min/kg and the half-life was 10 h.

`COc1cccc2c1C(=O)c1c(O)c3c(c(O)c1C2=O)C[C@@](O)(C(=O)CO)C[C@@H]3O[C@H]1C[C@H](N)[C@H](I)[C@H](C)O1`: in data set [1] (dog), the distribution volume (Vd) was 2.6 L/kg and the clearance was 6.5 mL/min/kg. In addition, in data set [1] (monkey), the Vd is 14 L/kg and the clearance was 43.3 mL/min/kg. In data set [1] (rat), the Vd was 14 L/kg and the clearance was 36.6 mL/min/kg. In data set [2], the mean residence time MRT was 6.4 h, the Vd is 53.6 L/kg, the clearance was 140 mL/min/kg and the half-life was 10.3 h.

Take `NC(C(=O)O)[C@@H]1CC(Cl)=NO1` (stereo partly specified): the distribution volume (Vd) was 0.58 L/kg in data set [1] (dog), 0.61 L/kg in data set [1] (monkey), 0.74 L/kg in data set [1] (rat) and 0.5 L/kg in data set [2]. In addition, the clearance in data set [1] (dog) is 1.4 mL/min/kg; in data set [1] (monkey), 2.3 mL/min/kg; in data set [1] (rat), 6.4 mL/min/kg; in data set [2] it was 0.69 mL/min/kg. In data set [2], the MRT is 12 h. Also, in data set [2], the half-life was 9.9 h.

As for `C[C@H](Cn1cnc2c(N)ncnc21)OCP(=O)(O)O`, in data set [1] (dog), the Vd was 0.9 L/kg and the clearance is 5.9 mL/min/kg. For the same compound, the clearance in data set [1] (monkey) is 16.2 mL/min/kg. Also, in data set [2], the mean residence time MRT is 3.8 h, the Vd was 0.83 L/kg, the clearance was 3.1 mL/min/kg and the half-life is 5.8 h. Also, in data set [2], the unbound share (fraction unbound) is 0.93.

As for `CC[C@@H](CO)NCCN[C@@H](CC)CO`, in data set [1] (dog), the Vd is 3.8 L/kg and the clearance was 13 mL/min/kg. For the same compound, in data set [2], the mean residence time (MRT) is 2.7 h, the Vd was 1.7 L/kg, the clearance is 10 mL/min/kg and the half-life was 3.1 h. In addition, in data set [2], the free fraction (fraction unbound) was 0.18.

On to `CCCC(=O)OCOC(=O)C1=C(C)NC(C)=C(C(=O)OC)C1c1cccc(Cl)c1Cl` (stereo unspecified), for which the Vd in data set [1] (dog) is 0.21 L/kg; in data set [1] (rat), 0.44 L/kg; in data set [2] it was 0.58 L/kg. In addition, in data set [2], the MRT was 0.07 h. In addition, the half-life in data set [2] is 0.3 h.

Consider `OC(Cn1cncn1)(Cn1cncn1)c1ccc(F)cc1F`, for which, in data set [1] (dog), the distribution volume (Vd) was 0.7 L/kg and the clearance was 0.65 mL/min/kg. In data set [1] (rat), the Vd was 0.97 L/kg, the clearance is 4.2 mL/min/kg and the fraction unbound is 0.9. Moreover, in data set [2], the MRT was 40 h, the distribution volume (Vd) was 0.75 L/kg, the clearance was 0.31 mL/min/kg and the half-life was 30 h.

As to `CC(C)(C)NC(=O)C1CC[C@H]2[C@@H]3CC[C@H]4NC(=O)C=C[C@]4(C)[C@H]3CC[C@]12C` (stereo partly specified), in data set [1] (dog), the fraction unbound was 0.18. Further, in data set [2], the mean residence time MRT is 7.6 h, the distribution volume (Vd) was 1.1 L/kg and the half-life was 6 h.
